Test [1] has as its system U266 cells. Kind of test: Immunofluorescence analysis of microtubules (anti-α-tubulin). The test is classed as cell-based, human. Particulars: 5 to 7.5 µM for 24 h or 7.5 µM for 12 to 24 h. The protocol: Both control and 6-OAP-treated MM cells were plated on glass slides by centrifugation using a cytospin, air-dried for 5 min at room temperature, and fixed with 4% paraformaldehyde for 15 min. After a brief washing in PBS with 100 mM glycine, slides were blocked with 5% bovine serum albumin (BSA; Sigma) and 0.3% Triton X-100 in PBS for 30 min at room temperature. Microtubules were detected with indicated antibodies diluted 1∶50 in 5% BSA in PBS overnight at 4°C and FITC or rhodamine-conjugated secondary antibodies (Santa Cruz) diluted 1∶200 in 5% BSA in PBS for 1.5 h at 37°C. Cells were then washed three times with PBS. Nuclei were stained with DAPI (Sigma).
Figure 2 6-OAP induces mitotic arrest in MM cells. (A) U266 cells were treated with 6-OAP at 7.5 µM for 0, 24, 48 h and imaged by Leica DMI 400B microscope. (B) U266 cells were treated with 6-OAP at indicated concentrations for 48 h. Cell cycle distribution was determined by flow cytometry. (C) MM.1S cells were treated with 5 µM 6-OAP for 48 h. Cell cycle distribution was determined by flow cytometry. (D) U266 cells were treated with 6-OAP at 5 to 7.5 µM for 24 h (left panel) or at 7.5 µM for 12 to 24 h (right panel). For immunofluorescence analysis of microtubules, cells was stained with an anti-α-tubulin antibody to visualize microtubules (green) and DAPI to counter stained DNA (blue) and observed by confocal microscopy. […]

The subject of test [2] is CD138+ primary cells harvested from 7 MM patients. Kind of test: MTT assay on primary MM cells. The test is classed as cell-based, human. The source says: CD138+ cells from 7 MM patients were isolated with informed consent from BM mononuclear cells by using positive immunomagnetic column separation (Miltenyi Biotech, Auburn, CA). The purity of CD138+ cells is above 97% as determined by flow cytometry. BMSCs were generated from a MM patient-derived CD138-negative BM mononuclear cells cultured for 5 weeks. Peripheral blood mononuclear cells (PBMCs) from 5 healthy donors were separated by Ficoll-Hipaque density sedimentation.
U266, RPMI 8226 cells (1×10^4), primary CD138+ cells, PBMCs (5×10^4), and BMSCs (1×10^4) were cultured in 96-well dishes and incubated without or with 6-OAP at indicated concentration for 48 h. MM.1S and MM.1R cells (2×10^4) were seeded into 96-well dishes and pre-cultured for 24 h, then treated with 6-OAP for 48 h. Cell proliferation was determined by MTT assay. Cell viability was estimated by trypan blue dye exclusion.
Background: Tetrazolium dyes change colour on reduction, which living cells bring about.

Turning to `CC=C(C)C(=O)OC1C2C(CC(C)C3C=CC(=O)C31C)OC(=O)C2C` (centres unmarked) [6-OAP, 6-O-angeloylplenolin], the “cellular microtubule network / mitotic spindle” value in test [1] was “cellular microtubules assembled to form mitotic spindle”. Also, in test [2], the “cell growth of CD138+ primary cells” value was “suppressed cell growth”.

The record behind these values is paper PMC3130785, “Small Compound 6-O-Angeloylplenolin Induces Mitotic Arrest and Exhibits Therapeutic Potentials in Multiple Myeloma” (PLoS ONE, 2011).
